Experimental data taken from patent US10233178B2, “Arylcyclopropylamine based demethylase inhibitors of LSD1 and their medical use” (priority 2010, dated 2019).

Assays:
[1] = target: MAO-B (Homo sapiens (Human), UniProt P27338); assay: biochemical
Procedure: For MAO-B, the protein was kept between 1.8 and 3.6 ng/ul (Sigma M7441) and kynuramine (Sigma) at 50 uM was used as substrate.

[2] = target: MAO-A (Homo sapiens (Human), UniProt P21397); assay: biochemical
MAO-A, sequence (P21397 whole entry): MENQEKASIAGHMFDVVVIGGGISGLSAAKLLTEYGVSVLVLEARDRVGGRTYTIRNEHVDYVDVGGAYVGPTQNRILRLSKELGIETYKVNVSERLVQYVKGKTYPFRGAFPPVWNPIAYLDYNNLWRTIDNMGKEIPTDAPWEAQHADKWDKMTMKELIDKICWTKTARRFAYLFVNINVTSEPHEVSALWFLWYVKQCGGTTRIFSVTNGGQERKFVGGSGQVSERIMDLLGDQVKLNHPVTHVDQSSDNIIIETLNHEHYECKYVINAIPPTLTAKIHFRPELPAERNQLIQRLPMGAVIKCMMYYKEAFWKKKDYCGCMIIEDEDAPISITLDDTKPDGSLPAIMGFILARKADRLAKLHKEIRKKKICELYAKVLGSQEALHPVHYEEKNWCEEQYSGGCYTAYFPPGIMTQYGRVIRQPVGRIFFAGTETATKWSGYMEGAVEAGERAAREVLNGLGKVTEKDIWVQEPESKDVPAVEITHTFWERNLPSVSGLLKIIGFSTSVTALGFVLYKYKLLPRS

MAO-B, sequence (P27338 whole entry): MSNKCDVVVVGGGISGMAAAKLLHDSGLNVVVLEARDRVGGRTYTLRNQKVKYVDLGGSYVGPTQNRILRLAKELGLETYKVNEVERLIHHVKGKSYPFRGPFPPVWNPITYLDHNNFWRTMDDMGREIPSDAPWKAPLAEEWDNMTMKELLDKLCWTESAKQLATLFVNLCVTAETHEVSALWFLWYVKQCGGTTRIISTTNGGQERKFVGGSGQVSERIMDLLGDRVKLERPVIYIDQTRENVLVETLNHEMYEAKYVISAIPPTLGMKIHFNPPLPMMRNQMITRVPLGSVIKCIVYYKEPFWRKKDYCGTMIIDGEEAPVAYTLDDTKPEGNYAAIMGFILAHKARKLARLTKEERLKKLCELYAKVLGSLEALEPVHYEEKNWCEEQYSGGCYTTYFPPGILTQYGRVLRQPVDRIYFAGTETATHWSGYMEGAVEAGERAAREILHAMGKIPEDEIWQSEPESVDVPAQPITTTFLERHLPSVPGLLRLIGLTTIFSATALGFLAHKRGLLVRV

C#CCN[C@@H]1CCc2ccccc21 [Rasagiline]
kinact/KI [1]: 7460 M⁻¹ s⁻¹ | kinact/KI [2]: 62 M⁻¹ s⁻¹
